Experimental data: ChEMBL document CHEMBL2331238, “Xanthoquinodins from the endolichenic fungal strain Chaetomium elatum” (J Nat Prod, 2013)

Experiments:
Type in all cases: functional, cell-based
HL-60 = experiment: Cytotoxicity against human HL60 cells assessed as cell viability measured after 48 hrs by MTT assay; settings: HL-60, 48 h
SMMC-7721 = experiment: Cytotoxicity against human SMMC7721 assessed as cell viability measured after 48 hrs by MTT assay; settings: SMMC-7721, 48 h
A549 = experiment: Cytotoxicity against human A549 assessed as cell viability measured after 48 hrs by MTT assay; settings: A549, 48 h
MCF7 = experiment: Cytotoxicity against human MCF7 assessed as cell viability measured after 48 hrs by MTT assay; settings: MCF7, 48 h
SW480 = experiment: Cytotoxicity against human SW480 assessed as cell viability measured after 48 hrs by MTT assay; settings: SW480, 48 h

COC(=O)[C@@]12Oc3c(c(O)cc4c3[C@@H]3C=C[C@]5(C4)C(=C(O)c4c(O)cc(C)cc4[C@@H]5O)C3=O)C(=O)C1=C(O)CC[C@@H]2O [XANTHOQUINODIN B5]
IC50 (HL-60): 4.74 µM
IC50 (SMMC-7721): 15 µM
IC50 (A549): 11.4 µM
IC50 (MCF7): 38.2 µM
IC50 (SW480): > 40 µM

CC(=O)O[C@H]1C(=O)[C@@]2(C)[C@H]([C@H](OC(=O)c3ccccc3)[C@]3(O)C[C@H](OC(=O)[C@H](O)[C@@H](NC(=O)c4ccccc4)c4ccccc4)C(C)=C1C3(C)C)[C@]1(OC(C)=O)CO[C@@H]1C[C@@H]2O [PACLITAXEL]
IC50 (HL-60): < 0.008 µM
IC50 (SMMC-7721): < 0.008 µM
IC50 (A549): < 0.008 µM
IC50 (MCF7): < 0.008 µM
IC50 (SW480): < 0.008 µM

COC(=O)[C@]1([C@@H]2CCC(=O)O2)CC(=O)c2c(cc3c(c2O)[C@@H]2C=C[C@]4(C3)C(=C(O)c3c(O)cc(C)cc3[C@@H]4O)C2=O)O1 [XANTHOQUINODIN A4]
IC50 (HL-60): > 40 µM
IC50 (SMMC-7721): 19.2 µM
IC50 (A549): 25.5 µM
IC50 (MCF7): 31.2 µM
IC50 (SW480): 18.9 µM

COC(=O)[C@]1([C@@H]2CCC(=O)O2)CC(=O)c2c(cc3c(c2O)[C@@H]2C=C[C@@]4(C3)C(=O)c3cc(C)cc(O)c3C(O)=C4C2=O)O1 [XANTHOQUINODIN A3]
IC50 (HL-60): 4.18 µM
IC50 (SMMC-7721): 16.7 µM
IC50 (A549): 15.3 µM
IC50 (MCF7): 7.47 µM
IC50 (SW480): 15.5 µM

COC(=O)[C@]12Oc3c(c(O)cc4c3[C@@H]3C=C[C@]5(C4)C(=C(O)c4c(O)cc(C)cc4[C@@H]5O)C3=O)C(=O)C1=C(O)CC[C@@H]2O [XANTHOQUINODIN B4]
IC50 (HL-60): 3.01 µM
IC50 (SMMC-7721): 27.7 µM
IC50 (A549): 25.1 µM
IC50 (MCF7): 30 µM
IC50 (SW480): > 40 µM

COC(=O)[C@@]12Oc3cc4c(c(O)c3C(=O)C1=C(O)CC[C@@H]2O)[C@@H]1C=C[C@@]2(C4)C(=O)c3cc(C)cc(O)c3C(O)=C2C1=O [XANTHOQUINODIN A1]
IC50 (HL-60): 6.22 µM
IC50 (SMMC-7721): 8 µM
IC50 (A549): 3.33 µM
IC50 (MCF7): 14.2 µM
IC50 (SW480): 28.8 µM

COC(=O)CC[C@H](O)[C@@]1(C(=O)OC)CC(=O)c2c(cc3c(c2O)[C@@H]2C=C[C@]4(C3)C(=C(O)c3c(O)cc(C)cc3[C@@H]4O)C2=O)O1 [XANTHOQUINODIN A5]
IC50 (HL-60): 26.6 µM
IC50 (SMMC-7721): 16.8 µM
IC50 (A549): 18.6 µM
IC50 (MCF7): 24 µM
IC50 (SW480): 16.2 µM

COC(=O)[C@]12Oc3cc4c(c(O)c3C(=O)C1=C(O)CC[C@@H]2O)[C@@H]1C=C[C@]2(C4)C(=C(O)c3c(O)cc(C)cc3[C@@H]2O)C1=O [XANTHOQUINODIN A6]
IC50 (HL-60): 3.75 µM
IC50 (SMMC-7721): 2.87 µM
IC50 (A549): 2.04 µM
IC50 (MCF7): 5.64 µM
IC50 (SW480): 6.44 µM

COC(=O)[C@]12Oc3cc4c(c(O)c3C(=O)C1=C(O)CC[C@@H]2O)[C@@H]1C=C[C@@]2(C4)C(=O)c3cc(C)cc(O)c3C(O)=C2C1=O [XANTHOQUINODIN A2]
IC50 (HL-60): 5.5 µM
IC50 (SMMC-7721): 6.77 µM
IC50 (A549): 4.04 µM
IC50 (MCF7): 20.8 µM
IC50 (SW480): > 40 µM
